Experimental data published in publication PMC9354638, “Targeting p21-activated kinase 4 (PAK4) with pyrazolo[3,4-d]pyrimidine derivative SPA7012 attenuates hepatic ischaemia-reperfusion injury in mice” (Journal of Enzyme Inhibition and Medicinal Chemistry, 2022).

Molecular target: T1, PAK4 (Homo sapiens, UniProt O96013)
T1 construct: purchased Reaction Biology Corporation (Malvern, PA, USA)
Assay: HotSpot kinase assay (Reaction Biology Corp.), PAK4 enzyme inhibition
Type: biochemical
Conditions: ATP 10 μM; for inhibition at 20 µM: relative percentage inhibition at 20 μM of compounds with staurosporine, read-out: PAK4 enzyme inhibition % inhibitory activity; for IC50: 10-dose, 3-fold serial dilution starting at 100 μM
Procedure: To examine the enzyme activity, HotSpot kinase assay was performed at Reaction Biology Corporation (Malvern, PA, USA). The kinase and substrate pairs were prepared in reaction buffer: 20 mM HEPES at pH 7.5, 10 mM MgCl2, 1 mM EGTA, 0.02% Brij 35, 0.02 mg/mL BSA, 0.1 mM Na3VO4, 2 mM DTT, and 1% DMSO. Compounds were added into the kinase reaction mixture and incubated for 20 min. Then, ^32 P-ATP was introduced to the mixture to initiate the reaction carried out at 10 μM of ATP concentration. After 2 h at room temperature, the mixture was spotted onto P81 ion exchange paper and kinase activity was then evaluated utilising the filter-binding method. Compounds were tested for single dose enzyme inhibition at a concentration of 20 μM. For the control compound, staurosporine was tested in a 10-dose IC50 mode. To determine the IC50 value, the compounds were tested for 10-doses with 3-fold serial dilution starting at 100 μM.
Synthesised compounds were evaluated for their in vitro PAK4 enzyme inhibitory activities. In vitro kinase assays were performed using HotSpot kinase assays for relative enzyme inhibitory activity at a single concentration (20 μM) and IC50 assessment at an ATP concentration of 10 μM (Figure 1(B)). […] For the allosteric pocket binder, cyclohexyl group (SPA7012) was preferable to the smaller dimethyl (SPA7011) or hydroxymethyl group (SPA7013), and the aromatic ring (SPA7014) reduced activity compared to the saturated ring (SPA7012). In vitro enzyme IC50 values appeared in the order of SPA7012, SPA7017, and SPA7016. […] Molecular docking analysis was performed on the human PAK4 catalytic domain structure complexed with GNE-2861 (PDB code: 4O0V). The binding pose of SPA7012 overlapped well with the crystal structure of GNE-2861, with the allosteric binder properly positioned in the specific back pocket. The oxygen atom in the tertiary alcohol of the hydrophobic allosteric binder formed hydrogen bonds with the backbone of Phe459 and the side chain of Glu366 (Figure 1(D)). The amine group and nitrogen atom in the pyrazolo[3,4-d]pyrimidine core scaffold also formed hydrogen bonds with Lue398 at the hinge region. Finally, SPA7012 was decided as a lead compound for further examination with satisfactory potency and subtype selectivity.

T1 sequence (O96013 whole entry): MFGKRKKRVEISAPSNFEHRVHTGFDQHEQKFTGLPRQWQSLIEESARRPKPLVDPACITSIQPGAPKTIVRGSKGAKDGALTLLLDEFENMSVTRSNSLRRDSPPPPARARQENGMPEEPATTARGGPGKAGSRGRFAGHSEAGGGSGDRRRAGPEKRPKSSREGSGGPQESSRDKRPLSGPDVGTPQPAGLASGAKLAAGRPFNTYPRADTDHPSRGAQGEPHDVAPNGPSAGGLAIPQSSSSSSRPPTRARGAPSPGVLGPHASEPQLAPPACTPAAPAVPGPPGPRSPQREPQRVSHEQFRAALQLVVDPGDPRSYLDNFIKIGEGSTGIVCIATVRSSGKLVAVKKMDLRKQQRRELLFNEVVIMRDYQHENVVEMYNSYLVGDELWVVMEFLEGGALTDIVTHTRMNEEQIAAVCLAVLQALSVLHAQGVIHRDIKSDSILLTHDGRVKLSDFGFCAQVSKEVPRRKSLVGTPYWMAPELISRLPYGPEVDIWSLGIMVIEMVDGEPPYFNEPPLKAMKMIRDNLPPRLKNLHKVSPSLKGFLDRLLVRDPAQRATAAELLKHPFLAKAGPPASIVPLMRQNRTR

| Compound | inhibition at 20 µM [%] | IC50 [µM] |
| --- | --- | --- |
| CC(C)(O)C#Cc1cccc(-n2c3ccccc3c3c(N)nccc32)c1 [Compound 10a, 4–(3–(1-Aminopyrido[4,3-b]indol-5-yl)phenyl)-2-methylbutyn-2-ol] | 32 |  |
| Nc1nccc2c1c1ccccc1n2-c1cccc(C#CC2(O)CCCCC2)c1 [Compound 10b, 3-(1-Aminopyrido[4,3-b]indol-5-yl)phenylethynylcyclohexan-1-ol] | 54 | 34 |
| CC(O)(C#Cc1cccc(-n2c3ccccc3c3c(N)nccc32)c1)CO (centres unmarked) [Compound 10c, 4–(3-(1-Aminopyrido[4,3-b]indol-5-yl)phenyl)-2-methylbutyn-1,2-diol] | 29 |  |
| Cc1nn(-c2cccc(C#CC(C)(C)O)c2)c2ncnc(N)c12 [Compound 14a, 4–(3–(4-Amino-3-methylpyrazolo[3,4-d]pyrimidin-1-yl)phenyl)-2-methylbutyn-2-ol] | 60 |  |
| Cc1nn(-c2cccc(C#CC(C)(O)CO)c2)c2ncnc(N)c12 (centres unmarked) [Compound 14c, 4–(3-(4-Amino-3-methylpyrazolo[3,4-d]pyrimidin-1-yl)phenyl)-2-methylbutyn-1,2-diol] | 36 |  |
| Cc1nn(-c2cccc(C#CC(C)(O)c3ccccc3)c2)c2ncnc(N)c12 (centres unmarked) [Compound 14d, 4–(3-(4-Amino-3-methylpyrazolo[3,4-d]pyrimidin-1-yl)phenyl)-2-phenylbutyn-2-ol] | 65 |  |
| Nc1ncnc2c1c(CCCN1CCOCC1)nn2-c1cccc(C#CC2(O)CCCCC2)c1 [Compound 18a, (3–(4-Amino-3–(3-morpholin-4-ylpropyl)pyrazolo[3,4-d]pyrimidin-1-yl)phenylethynyl)cyclohexanol] | 88 | 9.92 |
| Nc1ncnc2c1c(CCCN1CCCCC1)nn2-c1cccc(C#CC2(O)CCCCC2)c1 [Compound 18b, (3-[4-Amino-3–(3-piperidin-1-ylpropyl)pyrazolo[3,4-d]pyrimidin-1-yl]phenylethynyl)cyclohexanol] | 90 | 4.41 |
